Measurements from ChEMBL document CHEMBL5370665, “Insight from Linker Investigations: Discovery of a Novel Phenylbenzothiazole Necroptosis Inhibitor Targeting Receptor-Interacting Protein Kinase 1 (RIPK1) from a Phenoxybenzothiazole Compound with Dual RIPK1/3 Targeting Activity” (J Med Chem, 2023).
Active and inactive are the calls of the source. No cut-off for these calls is given here.

What was measured:
HT-29 [1] = assay: Anti-necroptic activity against human HT-29 cells assessed as inhibition of TSZ (TNFalpha, Smac mimetic and z-VAD-FMK) induced necroptosis pretreated with compound followed by TSZ stimulation for 16 to 18 hrs by CellTiter-Glo Luminescent cell viability assay; format: functional, cell-based
[2] = Cytotoxicity against human HT-29 cells assessed as reduction in cell viability incubated for 16 to 24 hrs by CellTiter-Glo Luminescent cell viability assay; format: toxicity, cell-based; conditions: time 16-24 hrs
HT-29 [3] = assay: Anti-necroptic activity in TSZ (TNFalpha, Smac mimetic and z-VAD-FMK) induced necroptosis in human HT-29 cells assessed as increase in cell viability preincubated for 30 mins pretreated followed by TSZ stimulation and measured after 16 hrs by MTT assay; format: functional, cell-based
[4] = molecular target: T1, Receptor-interacting serine/threonine-protein kinase 1 (Homo sapiens, UniProt Q13546); assay: Binding affinity to recombinant RIPK1 (unknown origin) assessed as dissociation constant incubated for 1 hr by KINOMEscanTM assay
T1 sequence (Q13546 whole entry): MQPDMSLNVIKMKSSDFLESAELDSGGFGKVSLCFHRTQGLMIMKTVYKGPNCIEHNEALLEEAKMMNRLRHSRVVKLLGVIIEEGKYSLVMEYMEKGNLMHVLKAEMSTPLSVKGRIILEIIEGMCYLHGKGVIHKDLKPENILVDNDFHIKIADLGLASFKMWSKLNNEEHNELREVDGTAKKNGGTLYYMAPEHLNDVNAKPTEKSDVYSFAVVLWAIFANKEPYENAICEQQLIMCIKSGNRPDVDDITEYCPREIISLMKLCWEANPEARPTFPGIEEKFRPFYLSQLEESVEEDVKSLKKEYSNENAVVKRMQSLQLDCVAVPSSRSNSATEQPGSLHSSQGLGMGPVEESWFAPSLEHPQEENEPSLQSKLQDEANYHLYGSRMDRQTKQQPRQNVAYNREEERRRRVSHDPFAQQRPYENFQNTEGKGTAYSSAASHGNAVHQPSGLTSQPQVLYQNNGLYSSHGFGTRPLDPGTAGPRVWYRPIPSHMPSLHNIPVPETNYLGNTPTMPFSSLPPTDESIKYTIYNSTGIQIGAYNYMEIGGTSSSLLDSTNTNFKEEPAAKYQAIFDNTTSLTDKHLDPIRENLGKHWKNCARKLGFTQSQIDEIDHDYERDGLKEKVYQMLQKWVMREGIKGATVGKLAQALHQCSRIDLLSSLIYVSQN

[5] = molecular target: Receptor-interacting serine/threonine-protein kinase 3 (Homo sapiens, UniProt Q9Y572); assay: Binding affinity to recombinant RIPK3 (unknown origin) assessed as dissociation constant incubated for 1 hr by KINOMEscanTM assay
Receptor-interacting serine/threonine-protein kinase 3, sequence (Q9Y572 whole entry): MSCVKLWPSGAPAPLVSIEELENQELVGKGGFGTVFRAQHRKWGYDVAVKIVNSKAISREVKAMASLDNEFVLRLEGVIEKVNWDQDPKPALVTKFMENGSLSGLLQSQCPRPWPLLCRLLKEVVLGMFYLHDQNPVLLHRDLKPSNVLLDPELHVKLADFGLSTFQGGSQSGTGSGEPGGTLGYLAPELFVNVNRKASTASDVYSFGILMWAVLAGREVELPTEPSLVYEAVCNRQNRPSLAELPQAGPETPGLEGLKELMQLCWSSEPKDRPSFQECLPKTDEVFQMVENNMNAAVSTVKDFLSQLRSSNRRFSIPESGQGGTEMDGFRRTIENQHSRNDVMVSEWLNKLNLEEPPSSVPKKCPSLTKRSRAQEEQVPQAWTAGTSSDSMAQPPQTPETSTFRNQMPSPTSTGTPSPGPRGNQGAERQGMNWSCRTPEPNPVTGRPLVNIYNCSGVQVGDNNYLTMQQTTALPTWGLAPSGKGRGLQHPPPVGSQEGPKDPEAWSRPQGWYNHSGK

HT-29 [6] = assay: Anti-apoptotic activity against human HT-29 cells assessed as inhibition of TC (human TNFalpha, cycloheximide) induced apoptosis upto 20 uM pretreated with compound followed by TC stimulation for 36 hrs by CellTiter-Glo Luminescent cell viability assay; format: functional, cell-based
Mus musculus [7] = assay: Anti-inflammatory activity against C57BL/6J mouse model of TNFalpha-induced systemic inflammatory response syndrome (SIRS) assessed as increase in body temperature at 5 mg/kg,po 2 hrs prior to mTNFalpha and z-VAD-FMK stimulation and measured upto 18 hrs by electric thermometer analysis; format: functional, organism-based; conditions: time 20.0 hrs
Mus musculus [8] = assay: Anti-inflammatory activity against C57BL/6J mouse model of TNFalpha-induced systemic inflammatory response syndrome (SIRS) assessed as increase in survival rate at 5 mg/kg,po 2 hrs prior to mTNFalpha and z-VAD-FMK stimulation and measured upto 24 hrs; format: functional; conditions: time 26 hrs
Mus musculus [9] = assay: Anti-inflammatory activity against C57BL/6J mouse model of TNFalpha-induced systemic inflammatory response syndrome (SIRS) assessed as decrease in IL-6 level in heart at 5 mg/kg,po 2 hrs prior to mTNFalpha and z-VAD-FMK stimulation for 8 hrs by ELISA; format: functional, organism-based; conditions: time 10.0 hrs
Mus musculus [10] = assay: Anti-inflammatory activity against C57BL/6J mouse model of TNFalpha-induced systemic inflammatory response syndrome (SIRS) assessed as decrease in IL-6 level in liver at 5 mg/kg,po 2 hrs prior to mTNFalpha and z-VAD-FMK stimulation for 8 hrs by ELISA; format: functional, organism-based; conditions: time 10.0 hrs
Mus musculus [11] = assay: Anti-inflammatory activity against C57BL/6J mouse model of TNFalpha-induced systemic inflammatory response syndrome (SIRS) assessed as decrease in IL-6 level in spleen at 5 mg/kg,po 2 hrs prior to mTNFalpha and z-VAD-FMK stimulation for 8 hrs by ELISA; format: functional, organism-based; conditions: time 10.0 hrs
Mus musculus [12] = assay: Anti-inflammatory activity against C57BL/6J mouse model of TNFalpha-induced systemic inflammatory response syndrome (SIRS) assessed as decrease in IL-6 level in lung at 5 mg/kg,po 2 hrs prior to mTNFalpha and z-VAD-FMK stimulation for 8 hrs by ELISA; format: functional, organism-based; conditions: time 10.0 hrs
Mus musculus [13] = assay: Anti-inflammatory activity against C57BL/6J mouse model of TNFalpha-induced systemic inflammatory response syndrome (SIRS) assessed as decrease in IL-6 level in kidney at 5 mg/kg,po 2 hrs prior to mTNFalpha and z-VAD-FMK stimulation for 8 hrs by ELISA; format: functional, organism-based; conditions: time 10.0 hrs
Mus musculus [14] = assay: Anti-inflammatory activity against C57BL/6J mouse model of TNFalpha-induced systemic inflammatory response syndrome (SIRS) assessed as decrease in IL-6 level in intestine at 5 mg/kg,po 2 hrs prior to mTNFalpha and z-VAD-FMK stimulation for 8 hrs by ELISA; format: functional, organism-based; conditions: time 10.0 hrs
Mus musculus [15] = assay: Anti-inflammatory activity against C57BL/6J mouse model of TNFalpha-induced systemic inflammatory response syndrome (SIRS) assessed as decrease in IL-6 level in brain at 5 mg/kg,po 2 hrs prior to mTNFalpha and z-VAD-FMK stimulation for 8 hrs by ELISA; format: functional, organism-based; conditions: time 10.0 hrs
Mus musculus [16] = assay: Anti-inflammatory activity against C57BL/6J mouse model of TNFalpha-induced systemic inflammatory response syndrome (SIRS) assessed as decrease in IL-1beta level in heart at 5 mg/kg,po 2 hrs prior to mTNFalpha and z-VAD-FMK stimulation for 8 hrs by ELISA; format: functional, organism-based; conditions: time 10.0 hrs
Mus musculus [17] = assay: Anti-inflammatory activity against C57BL/6J mouse model of TNFalpha-induced systemic inflammatory response syndrome (SIRS) assessed as decrease in IL-1beta level in brain at 5 mg/kg,po 2 hrs prior to mTNFalpha and z-VAD-FMK stimulation for 8 hrs by ELISA; format: functional, organism-based; conditions: time 10.0 hrs
Mus musculus [18] = assay: Anti-inflammatory activity against C57BL/6J mouse model of TNFalpha-induced systemic inflammatory response syndrome (SIRS) assessed as decrease in IL-1beta level in liver at 5 mg/kg,po 2 hrs prior to mTNFalpha and z-VAD-FMK stimulation for 8 hrs by ELISA; format: functional, organism-based; conditions: time 10.0 hrs
Mus musculus [19] = assay: Anti-inflammatory activity against C57BL/6J mouse model of TNFalpha-induced systemic inflammatory response syndrome (SIRS) assessed as decrease in IL-1beta level in kidney at 5 mg/kg,po 2 hrs prior to mTNFalpha and z-VAD-FMK stimulation for 8 hrs by ELISA; format: functional, organism-based; conditions: time 10.0 hrs
Mus musculus [20] = assay: Anti-inflammatory activity against C57BL/6J mouse model of TNFalpha-induced systemic inflammatory response syndrome (SIRS) assessed as decrease in IL-1beta level in spleen at 5 mg/kg,po 2 hrs prior to mTNFalpha and z-VAD-FMK stimulation for 8 hrs by ELISA; format: functional, organism-based; conditions: time 10.0 hrs
Mus musculus [21] = assay: Anti-inflammatory activity against C57BL/6J mouse model of TNFalpha-induced systemic inflammatory response syndrome (SIRS) assessed as decrease in IL-1beta level in lung at 5 mg/kg,po 2 hrs prior to mTNFalpha and z-VAD-FMK stimulation for 8 hrs by ELISA; format: functional, organism-based; conditions: time 10.0 hrs
Mus musculus [22] = assay: Anti-inflammatory activity against C57BL/6J mouse model of TNFalpha-induced systemic inflammatory response syndrome (SIRS) assessed as decrease in IL-1beta level in intestine at 5 mg/kg,po 2 hrs prior to mTNFalpha and z-VAD-FMK stimulation for 8 hrs by ELISA; format: functional, organism-based; conditions: time 10.0 hrs

Row | Structure (SMILES) | EC50 (HT-29 [1]) [µM] | CC50 [2] [µM] | also measured
1 | O=C(Cc1cccc(OC(F)(F)F)c1)Nc1cc(-c2ccc3sc(NC(=O)C4CC4)nc3c2)ccc1F | > 20 | > 10 | –
2 | O=C(Cc1cccc(OC(F)(F)F)c1)Nc1ccc(-c2ccc3nc(NC(=O)C4CC4)sc3c2)cc1F | > 20 | > 10 | –
3 | O=C(Cc1cccc(OC(F)(F)F)c1)Nc1cc(-c2cccc3nc(NC(=O)C4CC4)sc23)ccc1F | > 20 | > 10 | –
4 | O=C(Cc1cccc(OC(F)(F)F)c1)Nc1cc(COc2ccc3nc(NC(=O)C4CC4)sc3c2)ccc1F | 0.9 | > 10 | –
5 | O=C(Cc1cccc(OC(F)(F)F)c1)Nc1cc(C(=O)Nc2ccc3nc(NC(=O)C4CC4)sc3c2)ccc1F | 1.26 | > 10 | –
6 | O=C(Cc1cccc(OC(F)(F)F)c1)Nc1cc(C(=O)c2ccc3nc(NC(=O)C4CC4)sc3c2)ccc1F | 2.04 | > 10 | –
7 | O=C(Cc1cccc(C(F)(F)F)c1)Nc1cc(Oc2cc3sc(NC(=O)C4CC4)nc3cc2F)ccc1F | – | – | EC50 (HT-29 [3]): 0.008 µM
8 | O=C(Cc1cccc(OC(F)(F)F)c1)Nc1cc(Nc2ccc3nc(NC(=O)C4CC4)sc3c2)ccc1F | 1.24 | > 10 | –
9 | O=C(Cc1cccc(OC(F)(F)F)c1)Nc1cc(NC(=O)c2ccc3nc(NC(=O)C4CC4)sc3c2)ccc1F | 3.13 | > 10 | –
10 | CN(c1ccc(F)c(NC(=O)Cc2cccc(OC(F)(F)F)c2)c1)c1ccc2nc(NC(=O)C3CC3)sc2c1 | 0.75 | > 10 | –
11 | O=C(Cc1cccc(OC(F)(F)F)c1)Nc1cccc(-c2ccc3nc(NC(=O)C4CC4)sc3c2)c1F | 0.34 | > 10 | Kd [4]: 0.14 µM; Kd [5]: > 5 µM
12 | O=C(Cc1cccc(OC(F)(F)F)c1)Nc1cc(C#Cc2ccc3nc(NC(=O)C4CC4)sc3c2)ccc1F | 0.2 | > 10 | –
13 | O=C(Cc1cccc(OC(F)(F)F)c1)Nc1c(F)cccc1-c1ccc2nc(NC(=O)C3CC3)sc2c1 | > 20 | > 10 | –
14 | O=C(Cc1cccc(OC(F)(F)F)c1)Nc1cc(Oc2ccc3nc(NC(=O)C4CC4)sc3c2)ccc1F | – | – | Activity (HT-29 [6]): Active; Activity (Mus musculus [7]): inactive; survival at 5 mg/kg (Mus musculus [8]): 40%; Activity (Mus musculus [9]): inactive; Activity (Mus musculus [10]): inactive; Activity (Mus musculus [11]): inactive; Activity (Mus musculus [12]): inactive; Activity (Mus musculus [13]): inactive; Activity (Mus musculus [14]): inactive; Activity (Mus musculus [15]): inactive; Activity (Mus musculus [16]): inactive; Activity (Mus musculus [17]): inactive; Activity (Mus musculus [18]): inactive; Activity (Mus musculus [19]): inactive; Activity (Mus musculus [20]): inactive; Activity (Mus musculus [21]): inactive; Activity (Mus musculus [22]): inactive
15 | O=C(Nc1cccc(C(F)(F)F)c1)Nc1cc(Oc2ccc3nc(NC(=O)C4CC4)sc3c2)ccc1F | – | – | Activity (HT-29 [6]): Active
16 | O=C(Cc1cccc(OC(F)(F)F)c1)Nc1cc(Cc2ccc3nc(NC(=O)C4CC4)sc3c2)ccc1F | 0.31 | > 10 | –
17 | O=C(Cc1cccc(OC(F)(F)F)c1)Nc1cc(-c2cccc3sc(NC(=O)C4CC4)nc23)ccc1F | > 20 | > 10 | –
18 | O=C(Cc1cccc(OC(F)(F)F)c1)Nc1cc(C(O)c2ccc3nc(NC(=O)C4CC4)sc3c2)ccc1F (stereo not given) | 0.71 | > 10 | –
19 | O=C(Cc1cccc(OC(F)(F)F)c1)Nc1cc(Sc2ccc3nc(NC(=O)C4CC4)sc3c2)ccc1F | 1.56 | > 10 | –
20 | O=C(Cc1cccc(OC(F)(F)F)c1)Nc1cc(S(=O)(=O)c2ccc3nc(NC(=O)C4CC4)sc3c2)ccc1F | > 20 | > 10 | –
